# Experimental data as given in paper PMC8086052 (Japanese Journal of Clinical Oncology, 2021).
# “Also recorded” adds a separate entry of the source. Like-named read-outs stand apart in the source and are kept apart here.
# Columns and labels:
# [1] = system: Japanese patients with advanced solid tumours; settings: for Tolerability: 200 or 300 mg/day, Japanese patients with advanced solid tumours; for Patients with dose-limiting toxicity (DLT) in cycle 1: cohort 2, 300 mg/day (n = 6)
# [2] = system: non-Japanese patients with advanced solid tumours; settings: phase I studies in USA and Europe; cited from earlier work
# [3] = system: newly diagnosed advanced ovarian cancer; settings: regardless of presence or absence of HRd; cited from earlier work
# [4] = system: metastatic or locally advanced solid tumours
# [5] = cited from earlier work
# [6] = system: platinum-sensitive recurrent ovarian cancer; settings: cited from earlier work
# [7] = Plasma pharmacokinetics of niraparib and M1, cycle 1 days 1 and 21; type: in vivo, human; settings: for AUC(0-t) / Cmax: oral; for Cmax / Cmin: geometric mean (SD)
# [8] = cancer patients; cited from earlier work
# [9] = Niraparib 200 mg/day (n = 3), Any grade
# [10] = Niraparib 200 mg/day (n = 3), Grade 3/4
# [11] = Niraparib 300 mg/day (n = 6), Any grade
# [12] = Niraparib 300 mg/day (n = 6), Grade 3/4
# [13] = cohort 2, 300 mg/day, listed as niraparib
# [14] = cohort 2, 300 mg/day, three patients
structure (smiles),measurement,setting,value
"NC(=O)c1cccc2cn(-c3ccc([C@@H]4CCCNC4)cc3)nc12 [Niraparib, niraparib]",Time to recovery from grade 4 thrombocytopenia / platelet count decreased,[1]; 300 mg/day cohort,~ 10 days
same,Patients with grade 4 thrombocytopenia or platelet count decreased,"[1]; 300 mg/day cohort, day 14 of cycle 1 and day 8 of cycle 2",two patients
same,"AEs of special interest (myelodysplastic syndrome, acute myeloid leukaemia, hypertensive crisis)",[1]; 200 and 300 mg/day,no AEs of special interest
same,Tolerability,[1],tolerable
same,Tolerability,[1]; listed as niraparib,generally safe and tolerable
same,Patients with events: ALT increased,[1]; [9],0 n (%)
same,Patients with events: AST increased,[1]; [9],0 n (%)
same,Patients with events: Anaemia,[1]; [9],0 n (%)
same,Patients with events: Any TEAE,[1]; [9],3 (100.0) n (%)
same,Patients with events: Blood ALP increased,[1]; [9],1 (33.3) n (%)
same,Patients with events: Blood creatinine increased,[1]; [9],1 (33.3) n (%)
same,Patients with events: Chest pain,[1]; [9],0 n (%)
same,Patients with events: Constipation,[1]; [9],1 (33.3) n (%)
same,Patients with events: Decreased appetite,[1]; [9],2 (66.7) n (%)
same,Patients with events: Diabetes mellitus,[1]; [9],0 n (%)
same,Patients with events: Diarrhoea,[1]; [9],0 n (%)
same,Patients with events: Fatigue,[1]; [9],2 (66.7) n (%)
same,Patients with events: Febrile neutropenia,[1]; [9],0 n (%)
same,Patients with events: GGT increased,[1]; [9],0 n (%)
same,Patients with events: Hypertension,[1]; [9],0 n (%)
same,Patients with events: Malaise,[1]; [9],1 (33.3) n (%)
same,Patients with events: Nausea,[1]; [9],1 (33.3) n (%)
same,Patients with events: Platelet count decreased,[1]; [9],1 (33.3) n (%)
same,Patients with events: Pyelonephritis,[1]; [9],0 n (%)
same,Patients with events: Thrombocytopenia,[1]; [9],0 n (%)
same,Patients with events: Vomiting,[1]; [9],2 (66.7) n (%)
same,Patients with events: White blood cell count decreased,[1]; [9],1 (33.3) n (%)
same,Patients with events: ALT increased,[1]; [10],0 n (%)
same,Patients with events: AST increased,[1]; [10],0 n (%)
same,Patients with events: Anaemia,[1]; [10],0 n (%)
same,Patients with events: Any TEAE,[1]; [10],1 (33.3) n (%)
same,Patients with events: Blood ALP increased,[1]; [10],1 (33.3) n (%)
same,Patients with events: Blood creatinine increased,[1]; [10],0 n (%)
same,Patients with events: Chest pain,[1]; [10],0 n (%)
same,Patients with events: Constipation,[1]; [10],0 n (%)
same,Patients with events: Decreased appetite,[1]; [10],0 n (%)
same,Patients with events: Diabetes mellitus,[1]; [10],0 n (%)
same,Patients with events: Diarrhoea,[1]; [10],0 n (%)
same,Patients with events: Fatigue,[1]; [10],0 n (%)
same,Patients with events: Febrile neutropenia,[1]; [10],0 n (%)
same,Patients with events: GGT increased,[1]; [10],0 n (%)
same,Patients with events: Hypertension,[1]; [10],0 n (%)
same,Patients with events: Malaise,[1]; [10],0 n (%)
same,Patients with events: Nausea,[1]; [10],0 n (%)
same,Patients with events: Platelet count decreased,[1]; [10],0 n (%)
same,Patients with events: Pyelonephritis,[1]; [10],0 n (%)
same,Patients with events: Thrombocytopenia,[1]; [10],0 n (%)
same,Patients with events: Vomiting,[1]; [10],0 n (%)
same,Patients with events: White blood cell count decreased,[1]; [10],1 (33.3) n (%)
same,Patients with events: ALT increased,[1]; [11],3 (50.0) n (%)
same,Patients with events: AST increased,[1]; [11],5 (83.3) n (%)
same,Patients with events: Anaemia,[1]; [11],3 (50.0) n (%)
same,Patients with events: Any TEAE,[1]; [11],6 (100.0) n (%)
same,Patients with events: Blood ALP increased,[1]; [11],4 (66.7) n (%)
same,Patients with events: Blood creatinine increased,[1]; [11],1 (16.7) n (%)
same,Patients with events: Chest pain,[1]; [11],2 (33.3) n (%)
same,Patients with events: Constipation,[1]; [11],2 (33.3) n (%)
same,Patients with events: Decreased appetite,[1]; [11],2 (33.3) n (%)
same,Patients with events: Diabetes mellitus,[1]; [11],1 (16.7) n (%)
same,Patients with events: Diarrhoea,[1]; [11],2 (33.3) n (%)
same,Patients with events: Fatigue,[1]; [11],1 (16.7) n (%)
same,Patients with events: Febrile neutropenia,[1]; [11],1 (16.7) n (%)
same,Patients with events: GGT increased,[1]; [11],3 (50.0) n (%)
same,Patients with events: Hypertension,[1]; [11],2 (33.3) n (%)
same,Patients with events: Malaise,[1]; [11],2 (33.3) n (%)
same,Patients with events: Nausea,[1]; [11],4 (66.7) n (%)
same,Patients with events: Platelet count decreased,[1]; [11],5 (83.3) n (%)
same,Patients with events: Pyelonephritis,[1]; [11],1 (16.7) n (%)
same,Patients with events: Thrombocytopenia,[1]; [11],1 (16.7) n (%)
same,Patients with events: Vomiting,[1]; [11],2 (33.3) n (%)
same,Patients with events: White blood cell count decreased,[1]; [11],1 (16.7) n (%)
same,Patients with events: ALT increased,[1]; [12],1 (16.7) n (%)
same,Patients with events: AST increased,[1]; [12],0 n (%)
same,Patients with events: Anaemia,[1]; [12],1 (16.7) n (%)
same,Patients with events: Any TEAE,[1]; [12],4 (66.7) n (%)
same,Patients with events: Blood ALP increased,[1]; [12],1 (16.7) n (%)
same,Patients with events: Blood creatinine increased,[1]; [12],0 n (%)
same,Patients with events: Chest pain,[1]; [12],0 n (%)
same,Patients with events: Constipation,[1]; [12],0 n (%)
same,Patients with events: Decreased appetite,[1]; [12],0 n (%)
same,Patients with events: Diabetes mellitus,[1]; [12],1 (16.7) n (%)
same,Patients with events: Diarrhoea,[1]; [12],0 n (%)
same,Patients with events: Fatigue,[1]; [12],0 n (%)
same,Patients with events: Febrile neutropenia,[1]; [12],1 (16.7) n (%)
same,Patients with events: GGT increased,[1]; [12],2 (33.3) n (%)
same,Patients with events: Hypertension,[1]; [12],0 n (%)
same,Patients with events: Malaise,[1]; [12],0 n (%)
same,Patients with events: Nausea,[1]; [12],0 n (%)
same,Patients with events: Platelet count decreased,[1]; [12],1 (16.7) n (%)
same,Patients with events: Pyelonephritis,[1]; [12],1 (16.7) n (%)
same,Patients with events: Thrombocytopenia,[1]; [12],1 (16.7) n (%)
same,Patients with events: Vomiting,[1]; [12],0 n (%)
same,Patients with events: White blood cell count decreased,[1]; [12],0 n (%)
same,Patients who discontinued treatment due to a TEAE,"[1]; cohort 1, 200 mg/day",no patient
same,Treatment-related TEAE: decreased appetite,"[1]; cohort 1, 200 mg/day",2 n
same,Patients with grade 3 treatment-related AEs,"[1]; cohort 1, 200 mg/day, blood alkaline phosphatase increased, white blood cell count decreased",one patient
same,Treatment-related TEAE: decreased appetite,"[1]; cohort 1, 200 mg/day, listed as niraparib",66.7%
same,Patients with grade ≥ 3 treatment-related AEs,"[1]; cohort 2, 300 mg/day",five patients
same,Patients with treatment-related grade 3 alanine aminotransferase increased,"[1]; cohort 2, 300 mg/day",one patient
same,Patients with treatment-related grade 3 anaemia,"[1]; cohort 2, 300 mg/day",two patients
same,Patients with treatment-related grade 3 febrile neutropenia,"[1]; cohort 2, 300 mg/day",one patient
same,Patients with treatment-related grade 3 gamma-glutamyl transferase increased,"[1]; cohort 2, 300 mg/day",one patient
same,Total number of grade ≥ 3 treatment-related AEs,"[1]; cohort 2, 300 mg/day",11
same,Treatment-related TEAE: aspartate aminotransferase increased,"[1]; cohort 2, 300 mg/day",5 n
same,Treatment-related TEAE: platelet count decreased,"[1]; cohort 2, 300 mg/day",5 n
same,Patients with dose-limiting toxicity (DLT) in cycle 1,[1],16.7%
same,Patients with dose-limiting toxicity (DLT) in cycle 1,[1]; grade 4 platelet count decreased,one patient
same,Treatment-related TEAE: aspartate aminotransferase increased,[1]; [13],83.3%
same,Treatment-related TEAE: platelet count decreased,[1]; [13],83.3%
same,Patients who discontinued treatment due to a TEAE,"[1]; cohort 2, 300 mg/day, malaise and gamma-glutamyl transferase increased",Two patients
same,Patients with a serious AE,"[1]; cohort 2, 300 mg/day, pyelonephritis, considered unrelated to niraparib",One patient
same,Treatment-related TEAE: alkaline phosphatase increased,[1]; [14],50.0%
same,Treatment-related TEAE: anaemia,[1]; [14],50.0%
same,Treatment-related TEAE: nausea,[1]; [14],50.0%
same,maximum tolerated dose (MTD),[2],300 mg once daily
same,progression-free survival (PFS) compared with placebo,[3],significantly prolonged
same,Patients with PD (progressive disease),[4]; both cohorts,four
same,Patients with partial response,"[4]; both in cohort 2 (300 mg/day), lung cancer and bile duct cancer",Two patients
same,Patients with PD (progressive disease),"[4]; cohort 1, 200 mg/day",All patients
same,tumour exposure at steady state,[5],high
same,progression-free survival (PFS) compared with placebo,"[6]; maintenance treatment, regardless of germline BRCA mutation status",significantly prolonged
same,Patients requiring a dosage reduction to 200 mg once daily,[6]; starting dosage 300 mg once daily,~ 70%
same,Dose dependence of mean Cmax and AUC0–24,"[7]; 200 and 300 mg/day, after multiple doses",increased dose-proportionally; also recorded: generally increased in a dose-proportional manner
same,AUC(0-t),"[7]; human, plasma, 200 mg/day",4930 ng·h/mL
same,Cmax,"[7]; human, plasma, 200 mg/day, plasma, Cycle 1 Day 1, Niraparib 200 mg/day (n = 3)",443 ng/mL
same,Cmax,"[7]; human, plasma, 200 mg/day, plasma, Cycle 1 Day 21, Niraparib 200 mg/day (n = 3)",729 ng/mL
same,AUC(0-t),"[7]; human, plasma, 300 mg/day",6270 ng·h/mL
same,Cmax,"[7]; human, plasma, 300 mg/day, plasma, Cycle 1 Day 1, Niraparib 300 mg/day (n = 6)",530 ng/mL
same,Cmax,"[7]; human, plasma, 300 mg/day, plasma, Cycle 1 Day 21, Niraparib 300 mg/day (n = 4)",1170 ng/mL
same,Tmax,"[7]; human, plasma, po, median tmax, single (cycle 1, day 1) and multiple (cycle 1, day 21) oral administration of niraparib 200 and 300 mg/day",3 to 4 h
same,Cmin,"[7]; plasma, Cycle 1 Day 21, Niraparib 200 mg/day (n = 3)",405.8 (267.8) ng/ml
same,Cmin,"[7]; plasma, Cycle 1 Day 21, Niraparib 300 mg/day (n = 4)",592.3 (138.2) ng/ml
same,bioavailability after oral administration,[8],~ 73%
